# Target: T1, HCV NS3 helicase NS3h_1b(con1) (Hepatitis C virus genotype 1b, UniProt Q9WMX2)
# T1 construct: truncated C-terminally His-tagged NS3 proteins lacking the N-terminal protease, called NS3h; His-tag (C); made in house
# Assay: MBHA screen of NCI mechanistic set library at 20 μM (percent inhibition, compound interference)
# Type: biochemical
# Conditions: compounds at 20 μM; for Inh. (%) (Inhibition): calculated from Equation 1
# Procedure, shortened: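 Molecular beacon-based DNA unwinding assay; compounds screened at 20 μM in triplicate, with DMSO-only negative and 500 nM dT20 positive controls. Fluorescence (ex 643/em 670 nm) was read before and 30 min after adding ATP to 1 mM. Percent inhibition came from the change relative to DMSO controls; interference from pre-ATP fluorescence versus DMSO controls.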
# [1] = MBHA with DNA substrate, assay interference calculated with Equation 2
# [2] = assay interference calculated with Equation 2 (fluorescence vs DMSO-only controls before ATP)
# T1 sequence (Q9WMX2 1192-1657): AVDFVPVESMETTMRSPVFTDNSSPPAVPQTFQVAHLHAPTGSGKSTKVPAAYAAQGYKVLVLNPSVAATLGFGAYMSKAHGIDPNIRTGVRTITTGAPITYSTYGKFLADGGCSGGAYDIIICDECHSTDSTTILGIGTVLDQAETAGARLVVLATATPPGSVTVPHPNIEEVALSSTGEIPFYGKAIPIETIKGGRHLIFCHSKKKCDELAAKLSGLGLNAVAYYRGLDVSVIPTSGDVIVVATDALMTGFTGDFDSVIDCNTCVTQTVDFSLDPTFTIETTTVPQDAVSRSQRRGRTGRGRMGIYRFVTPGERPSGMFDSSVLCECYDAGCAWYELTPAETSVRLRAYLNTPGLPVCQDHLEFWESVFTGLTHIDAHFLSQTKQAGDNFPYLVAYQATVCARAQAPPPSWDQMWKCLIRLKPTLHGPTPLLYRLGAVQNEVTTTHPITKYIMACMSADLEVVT
Structure (SMILES),Int.* (Ratio) (Interference) [1],Inh. (%) (Inhibition) (MBHA with DNA substrate),Inh. (%) (Inhibition) (MBHA with a DNA substrate),Int.* (Ratio) (Interference) [2]
COc1ccc2cc1Oc1ccc(cc1)CC1c3cc(c(OC)cc3CCN1C)Oc1c(OC)c(OC)cc3c1C(C2)N(C)CC3 (stereo not drawn) [Compound 97338],0.96 Ratio,−9.0%,–,–
CC1(c2cccc3ccccc23)OC(=O)c2ccccc21 (stereo not drawn) [Compound 97703],1.11 Ratio,−9.3%,–,–
CC(=O)c1ccc(Oc2ccc(/C(C)=N/N=C(N)N)cc2)cc1.O=[N+]([O-])O [Compound 97911],–,–,11.5%,0.95 Ratio
[O-][Cl+3]([O-])([O-])[O-].c1ccc(-c2csc3c4ccccc4c4ccccc4[n+]23)cc1 [Compound 98904],0.89 Ratio,41.2%,–,–
CN1CCC23c4ccccc4NC1C21CCN(C)C3Nc2ccccc21 [Compound 99016],1.10 Ratio,−8.6%,–,–
O=c1ccc2ccc(CBr)cc2o1 [Compound 99027],–,–,10.1%,0.93 Ratio
Cn1c(=O)[nH]c2nncnc2c1=O [Compound 99733],1.02 Ratio,−17.9%,–,–
Cl.Cl.Nc1ccc(OCCCc2c(-c3ccccc3)nc(N)[nH]c2=O)cc1 [Compound 100856],0.98 Ratio,−11.6%,–,–
Nc1ncnc2c(C3OC(CO)C(O)C3O)[nH]nc12 (stereo not drawn) [Compound 102811],1.08 Ratio,1.0%,–,–
COC(=O)[C@@H]1c2cc3c(c(O)c2[C@@H](OC)C[C@@]1(C)O)C(=O)c1c(O)cc2c(c1C3=O)O[C@@H]1O[C@@]2(C)[C@H](O)[C@@H](N(C)C)[C@@H]1O [Compound 102815],0.76 Ratio,−11.4%,–,–
CCC1CN2CCc3cc(OC)c(OC)cc3C2CC1CC1c2cc(OC)c(OC)cc2CCN1C(=O)C1CCCN1C(=O)OCc1ccccc1 (stereo not drawn) [Compound 103248],0.92 Ratio,−11.6%,–,–
O=C1OC(c2ccccc2)=N/C1=C\c1ccc(N(CCCl)CCCl)cc1 [Compound 104117],1.06 Ratio,−14.5%,–,–
CC1(C)N=C(N)N=C(N)N1c1ccc(CCCCc2ccc(Cl)cc2Cl)cc1 [Compound 104129],–,–,−42.7%,0.92 Ratio
COc1ccc(C(=O)/C(Br)=C\C(=O)O)cc1 [Compound 104801],1.00 Ratio,−9.5%,–,–
Nc1nc(Cl)nc2c1ncn2[C@H]1C[C@H](O)[C@@H](CO)O1 [Compound 105014],0.89 Ratio,0.4%,–,–
NC1=C(Br)C(=O)c2ncccc2C1=O [Compound 105808],1.14 Ratio,2.6%,–,–
Cc1ccc(N=Nc2c(O)ccc3ccccc23)cc1 [Compound 106296],–,–,−5.2%,1.23 Ratio
CO[C@H]1Nc2c(ccc(C)c2O)C(=O)N2C=C(/C=C/C(N)=O)C[C@@H]12 [Compound 106408],0.94 Ratio,22.7%,–,–
COC(=O)c1ccc(=O)c2nc3/c(=C/O)c(O)cc(=O)c3[nH]c12 [Compound 106995],0.93 Ratio,−1.1%,–,–
CC(C)CCCC(=O)CCCCCCC(=O)CCN(O)C(=O)C(N)CO.O=S(=O)(O)O (stereo not drawn) [Compound 106997],0.96 Ratio,−2.2%,–,–
CC(/C=C/C(O)=C1/C(=O)CNC1=O)=C\[C@@H](C)[C@H]1O[C@]2(C)O[C@@H](C(=O)[C@@H]3O[C@@]32C)[C@@H]1C [Compound 107067],–,–,−6.0%,0.90 Ratio

Structure (SMILES),Int.* (Ratio) (Interference) [1],Inh. (%) (Inhibition) (MBHA with DNA substrate),Inh. (%) (Inhibition) (MBHA with a DNA substrate),Int.* (Ratio) (Interference) [2]
CO[C@@H]1[C@@H](OC(=O)c2ccc(C)[nH]2)[C@@H](O)[C@H](Oc2ccc3c(O)c(NC(=O)c4c[nH]c(C(=O)Nc5c(O)c6ccc(O[C@@H]7OC(C)(C)[C@H](OC)[C@@H](OC(=O)c8ccc(C)[nH]8)[C@H]7O)c(C)c6oc5=O)c4C)c(=O)oc3c2C)OC1(C)C [Compound 107412],0.83 Ratio,0.0%,–,–
O=C1C=C2C=CC3CC2(O1)C1CCCCN31 (stereo not drawn) [Compound 107415],0.97 Ratio,−15.2%,–,–
CCC1CN2CCc3cc(OC)c(OC)cc3C2CC1CC1c2cc(OC)c(OC)cc2CCN1C(=O)C(Cc1c[nH]c2ccccc12)NC(=O)OC(C)(C)C (stereo not drawn) [Compound 109350],0.92 Ratio,−9.3%,–,–
CN1CCCC2C(c3ccccc3)C(C3=NCCCC3)C(c3ccccc3)CC21.Cl (stereo not drawn) [Compound 109444],–,–,7.2%,1.01 Ratio
N=C1C=C(N)C(=O)c2[nH]c(=O)ccc21 [Compound 111041],–,–,−26.9%,0.97 Ratio
CCOC(=O)c1cc2c(OC)cc(OC)cc2oc1=O [Compound 111119],1.16 Ratio,6.3%,–,–
C=C(C)[C@@H]1CC[C@]2(C(=O)O)CC[C@]3(C)[C@H](CC[C@@H]4[C@@]5(C)CC[C@H](O)C(C)(C)[C@@H]5CC[C@]43C)[C@@H]12 [Compound 113090],–,–,−29.5%,1.00 Ratio
CC(C)(O)CCC(O)C(C)(O)C1CCC2(O)C3=CC(=O)C4(O)CC(O)C(O)CC4(C)C3CCC12C.CC(C)(O)CCC(O)C(C)(O)C1CCC2(O)C3=CC(=O)C4CC(O)C(O)CC4(C)C3CCC12C (stereo not drawn) [Compound 115493],–,–,7.3%,0.94 Ratio
CCOC(=O)Cc1c(C)c2cc(C(=O)c3ccccc3)c(O)cc2oc1=O [Compound 115538],1.02 Ratio,−12.6%,–,–
Oc1[nH]c2ccccc2c1N=Nc1c(F)c(F)c(F)c(F)c1F [Compound 116535],0.93 Ratio,5.9%,–,–
Cc1ccc([S+](c2ccccc2)c2cc(C)ccc2C)cc1.O=C(OC(C(=O)[O-])C(OC(=O)c1ccccc1)C(=O)O)c1ccccc1 (stereo not drawn) [Compound 116693],0.92 Ratio,−1.8%,–,–
Cc1ccc2[nH]c(O)c(N=Nc3ccccc3[N+](=O)[O-])c2c1 [Compound 117915],1.00 Ratio,1.4%,–,–
Cc1ccc2[c](c1)[Sn]([c]1ccccc1)([c]1ccccc1)[c]1cc(C)ccc1N2C [Compound 118030],0.92 Ratio,−13.1%,–,–
Cc1ccc(C)c2c(N=Nc3ccccc3[N+](=O)[O-])c(O)[nH]c12 [Compound 118732],0.89 Ratio,14.2%,–,–
Cc1ccc(Cl)c2c(N=Nc3ccccc3[N+](=O)[O-])c(O)[nH]c12 [Compound 118735],–,–,−5.2%,0.96 Ratio
CNc1nc(N(C)C)nc(N(C)C)n1 [Compound 118742],–,–,10.6%,1.01 Ratio
S=C=NCc1ccccc1 [Compound 118976],0.96 Ratio,13.9%,–,–
Cc1c2ccncc2c(C)c2c1sc1ccccc12 [Compound 119686],–,–,8.9%,1.18 Ratio
N.N.[Cl][Pt][Cl] [Compound 119875],0.83 Ratio,25.1%,–,–
CCCNC1=C(C)C(=O)C2=C(C1=O)[C@H](COC(N)=O)[C@]1(OC)[C@@H]3N[C@@H]3CN21 [Compound 123115],–,–,−25.7%,0.96 Ratio
Cc1c(N)nc([C@H](CC(N)=O)NC[C@H](N)C(N)=O)nc1C(=O)N[C@H](C(=O)N[C@H](C)[C@@H](O)[C@H](C)C(=O)N[C@H](C(=O)NCCc1nc(-c2nc(C(=O)NCCC[S+](C)C)cs2)cs1)[C@@H](C)O)[C@@H](OC1OC(CO)C(O)C(O)C1OC1OC(CO)C(O)C(OC(N)=O)C1O)c1cnc[nH]1 (stereo partly drawn) [Compound 125066],0.79 Ratio,15.8%,–,–

# From patent US9464064B2, “HCV helicase inhibitors and methods of use thereof” (University of Kansas, priority 2011, dated 2016)
